Source: ChEMBL document CHEMBL4840325, “Discovery of an Unexpected 1,4-Oxazepine-Linked seco-Fluostatin Heterodimer by Inactivation of the Oxidoreductase-Encoding Gene flsP” (2021)
Converted amounts (≈) assume the structure as drawn. The source made the active and inactive calls. The rule behind the calls is not given here.

Key:
SF-268 = assay: Cytotoxicity against human SF-268 cells assessed as reduction in cell viability at 0.5 to 16 uM measured after 72 hrs by SRB assay; format: functional, cell-based; settings: dose 0.5-16 µM
MCF7 = assay: Cytotoxicity against human MCF7 cells assessed as reduction in cell viability at 0.5 to 16 uM measured after 72 hrs by SRB assay; format: functional, cell-based; settings: dose 0.5-16 µM
HepG2 = assay: Cytotoxicity against human HepG2 cells assessed as reduction in cell viability at 0.5 to 16 uM measured after 72 hrs by SRB assay; format: functional, cell-based; settings: dose 0.5-16 µM
Candida albicans = assay: Antifungal activity against Candida albicans SC5314 assessed as fungal growth inhibition incubated for 16 to 18 hrs by broth microdilution method; format: functional; settings: time 16-18 hrs

Compound | Activity (SF-268) | Activity (MCF7) | Activity (HepG2) | MIC (Candida albicans) [µM]
CCC(C)C(=O)O[C@@H]1c2c(cc(O)c3c2C(=O)c2cccc(O)c2-3)C(=O)C(C)(Cl)[C@H]1O (stereo partly specified) | inactive | inactive | inactive | –
C[C@]12O[C@H]1[C@H](Nc1ccccc1C(=O)O)c1c(cc(O)c3c1C(=O)c1cccc(O)c1-3)C2=O | inactive | inactive | inactive | 100 (≈ 44.3 µg/mL)
CC(=O)/C=C/c1c2c(c3c4c1c(O)nn4[C@@H]1c4c(cc(O)c5c4C(=O)c4cccc(O)c4-5)C(=O)[C@](C)(O3)[C@H]1O)-c1c(O)cccc1C2=O | inactive | inactive | inactive | –
CO[C@@H]1c2c(cc(O)c3c2C(=O)c2cccc(O)c2-3)C(=O)C(C)(Cl)[C@H]1O (stereo partly specified) | inactive | inactive | inactive | 100 (≈ 37.5 µg/mL)
CC1(Nc2ccccc2C(=O)O)C(=O)c2cc(O)c3c(c2[C@@H](O)[C@@H]1O)C(=O)c1cccc(O)c1-3 (stereo partly specified) | inactive | inactive | inactive | 100 (≈ 46.1 µg/mL)
C[C@]12O[C@H]1[C@H](n1oc(=O)c3ccccc31)c1c(cc(O)c3c1C(=O)c1cccc(O)c1-3)C2=O | inactive | inactive | inactive | –
